Data as given in US12590062B2, “PD-1/PD-L1 inhibitors” (Gilead Sciences, Inc., priority 2017, dated 2026).
pEC50, pIC50: −log10 of the molar value.

Columns and labels:
PD-1/PD-L1 = PD-1/PD-L1 (Homo sapiens, UniProt Q9NZQ7); assay: PD-1/PD-L1 biochemical protein-protein interaction assay (ALPHA); format: binding; conditions: 0.3 nM His tagged PD-L1, 2.5 nM biotinylated Fc-PD-1, 60 minutes at 25° C., read-out: IC50 PD-L1-PD-1 Alpha IC50-mono PD-L1-fcP-D1
How it was run: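 Compounds are tested for blocking the PD-1/PD-L1 extracellular-domain interaction using an ALPHA bead assay, in which inhibition lowers the luminescent signal. Reactions run 60 min at 25° C with 0.3 nM His-PD-L1 and 2.5 nM biotinylated Fc-PD-1. IC50 values come from four-parameter fits.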

PD-1/PD-L1 interaction = biological target: T1, PD-1/PD-L1 interaction (Homo sapiens, UniProt Q9NZQ7); assay: PD-1/PD-L1 NFAT reporter co-culture assay; format: cell-based; conditions: Jurkat PD-1 NFAT-luciferase cells co-cultured with aAPC-PD-L1 CHO cells, 6 hrs at 37° C.; read-out: EC50 NFAT Luciferase
T1 construct: expressed in transfected cells; host or cells: CHO cells (aAPC-PD-L1) co-cultured with Jurkat cells overexpressing PD-1 and an NFAT-luciferase reporter
How it was run: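 Restoration of TCR-driven NFAT luciferase signal: 6 h, 37 °C co-culture of PD-1 Jurkat reporter cells (pre-mixed with compound) on overnight-seeded PD-L1/anti-CD3 CHO monolayer. ONE-Glo luminescence; dose-response fitted to four-parameter equation for EC50.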

PD-L1 = biological target: T2, PD-L1 (Homo sapiens, UniProt Q9NZQ7); assay: PD-L1/PD-L1 dimerization biochemical protein-protein interaction assay (ALPHA); format: binding; conditions: compound-induced PD-L1 dimerization, head prints '1 nM' (0.5 nM His-tagged PD-L1 and 0.5 nM FLAG-tagged PD-L1), read-out: AC50 PDL1 Dimer Alpha 1 nM
T2 construct: determine if they can specifically dimerize the extracellular domains of PD-L1
How it was run: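 ALPHA proximity assay of compound-induced dimerization of 0.5 nM His-tagged and 0.5 nM FLAG-tagged PD-L1 extracellular domains in Hepes pH 7.4 buffer, 2 h at 25 °C. Anti-His acceptor then anti-FLAG donor beads, 60 min each; AC50 from four-parameter fit.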

T2 sequence (Q9NZQ7 19-238 limits assumed): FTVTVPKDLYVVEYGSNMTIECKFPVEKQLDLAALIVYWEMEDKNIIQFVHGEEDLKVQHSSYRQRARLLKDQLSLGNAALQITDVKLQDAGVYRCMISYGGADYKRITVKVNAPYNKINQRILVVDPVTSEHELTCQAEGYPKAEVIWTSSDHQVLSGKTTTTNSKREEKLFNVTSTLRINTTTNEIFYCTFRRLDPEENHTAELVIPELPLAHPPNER
T2 sequence (Q9NZQ7 19-238 limits assumed): as above
Chain of PD-1/PD-L1 (Q9NZQ7 19-238 limits assumed): as above
T1 sequence (Q9NZQ7 19-290): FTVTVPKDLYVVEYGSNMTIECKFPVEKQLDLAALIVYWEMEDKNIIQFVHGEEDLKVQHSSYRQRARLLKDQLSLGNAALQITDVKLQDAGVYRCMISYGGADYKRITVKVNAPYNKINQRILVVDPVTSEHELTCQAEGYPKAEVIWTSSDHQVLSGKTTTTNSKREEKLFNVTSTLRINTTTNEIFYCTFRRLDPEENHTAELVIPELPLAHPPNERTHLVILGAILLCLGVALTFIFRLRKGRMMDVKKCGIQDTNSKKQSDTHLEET

SMILES	pIC50 (PD-1/PD-L1)	pEC50 (PD-1/PD-L1 interaction)	AC50 (PD-L1) [nM]
COc1nc(-c2cccc(-c3cccc4c3CC[C@@H]4Oc3nc(OCc4cncc(C#N)c4)c(CN[C@@](C)(CO)C(=O)O)cc3Br)c2Cl)ccc1CNC[C@@H]1CCC(=O)N1 [Example 747]	10.19	8.00	5.36
Cc1c(COc2cc(OCc3cncc(C#N)c3)c(CN[C@@](C)(CO)C(=O)O)cc2Cl)cccc1-c1cccc(-c2ccc(O[C@@H]3CCNC[C@H]3F)cc2)c1Cl [Example 445]	9.14	5.83	266
Cc1c(COc2cc(OCc3cncc(C#N)c3)c(CN3CC[C@@H](O)C3)cc2Cl)cccc1-c1cccc(-c2ccc(CNC[C@@H](O)CC(=O)O)cc2)c1C [Example 308, (S)-4-(((3″-((2-chloro-5-((5-cyanopyridin-3-yl)methoxy)-4-(((R)-3-hydroxypyrrolidin-1-yl)methyl)phenoxy)methyl)-2′,2″-dimethyl-[1,1′:3′,1″-terphenyl]-4-yl)methyl)amino)-3-hydroxybutanoic acid]	9.46	6.43	203
Cc1c(COc2cc(OCc3cncc(C#N)c3)c(CN(C)C)cc2Cl)cccc1-c1cccc(-c2ccc(CN(C)C)nc2)c1C [Example 382, 5-((4-chloro-2-((dimethylamino)methyl)-5-((3′-(6-((dimethylamino)methyl)pyridin-3-yl)-2,2′-dimethyl-[1,1′-biphenyl]-3-yl)methoxy)phenoxy)methyl)nicotinonitrile]	9.52	5.91	334
Cc1c(COc2cc(OCc3cncc(C#N)c3)c(CNC[C@@H](O)CC(=O)O)cc2Cl)cccc1-c1cccc(-c2ccc(C3=NCCN3)c(OCCCC#N)n2)c1C [Example 466]	10.19	7.03	44.1
COc1nc(-c2cccc(-c3cccc(-c4cnn(CCN)c4)c3Cl)c2Cl)ccc1CNC[C@@H]1CCC(=O)N1 [Example 596, (S)-5-((((6-(3′-(1-(2-aminoethyl)-1H-pyrazol-4-yl)-2,2′-dichloro-[1,1′-biphenyl]-3-yl)-2-methoxypyridin-3-yl)methyl)amino)methyl)pyrrolidin-2-one]	9.17	6.77	415
COc1cc(-c2cccc(-c3cccc(-c4cc(F)c(CNC[C@@H]5CCC(=O)N5)c(OC)c4)c3Cl)c2Cl)cc(F)c1CNC[C@@H]1CCC(=O)N1 [Example 512]	9.28	6.88	255
Cc1c(-c2ccc(CN3CC[C@@H](O)C3)cc2)cccc1-c1cccc(-c2ccc(CNC[C@@H](O)CC(=O)O)c(OC(F)(F)F)c2)c1C [Example 325, (S)-3-hydroxy-4-(((4′″-(((R)-3-hydroxypyrrolidin-1-yl)methyl)-2′,2″-dimethyl-3-(trifluoromethoxy)-[1,1′:3′,1″:3″,1′″-quaterphenyl]-4-yl)methyl)amino)butanoic acid]	8.86	5.59	633
COc1nc(O[C@H]2CCc3c(-c4cccc(-c5cnc(CN[C@@H]6CCC[C@@H]6O)c(OC)n5)c4Cl)cccc32)c(Cl)cc1CN[C@@H]1CCC[C@@H]1O [Example 643]	9.13	7.05	39
COc1nc(-c2cccc(-c3cccc4c3CC[C@@H]4Oc3nc(OC)c(CN[C@@H]4CCC[C@@H]4O)cc3Cl)c2Cl)ccc1CN[C@@H]1CCC[C@@H]1O [Example 646]	8.20	6.84	73.2
C[C@@](CO)(NCc1cc(Cl)c(O[C@H]2CCc3c(-c4cccc5c4CC[C@@H]5Oc4ccc(CN5CC[C@@H](O)C5)c(OCc5cncc(S(C)(=O)=O)c5)n4)cccc32)nc1OCc1cncc(S(C)(=O)=O)c1)C(=O)O [Example 687]	9.18	6.22	3100
COc1nc(-c2cccc(-c3cccc(COc4nc(OCc5cncc(C#N)c5)c(CNCCO)cc4Br)c3Cl)c2Cl)ccc1C1=NCCN1 [Example 555]	9.40	7.08	23.1
COc1nc(-c2cccc(-c3cccc4c3CC[C@@H]4Oc3nc(OC)c(CN[C@@](C)(CO)C(=O)O)cc3Cl)c2Cl)ccc1CN[C@@H]1CCC[C@@H]1O [Example 645]	10.19	7.52	30.7
COc1nc(O[C@H]2CCc3c(-c4cccc(-c5ccc(CNC[C@@H]6CCC(=O)N6)cc5)c4Cl)cccc32)c(Cl)cc1CN1CC2(CCC(=O)N2)C1 [Example 729]	9.03	6.19	49
N#Cc1cncc(COc2cc(O[C@H]3CCc4c(-c5cccc(-c6ccc7sc(CNC[C@@H]8CCC(=O)N8)nc7c6)c5Cl)cccc43)c(Cl)cc2CNC[C@@H]2CCC(=O)N2)c1 [Example 801]	8.01	≤ 4.30	≥ 10000
COc1nc(O[C@H]2CCc3c(-c4cccc(-c5cc(C)c(CNC[C@@H]6CCC(=O)N6)c(OC)n5)c4Cl)cccc32)c(Cl)cc1CN1CC[C@@H](C(=O)O)C1 [Example 490]	10.19	7.72	14.1
C[C@@](CO)(NCc1ccc(O[C@H]2CCc3c(-c4cccc(OCCCN5CC[C@@H](O)C5)c4Cl)cccc32)nc1OCc1cncc(C#N)c1)C(=O)O [Example 673]	9.81	6.23	399
Cc1c(COc2cc(OCc3cncc(C#N)c3)c(CN3CC[C@@H](C(=O)O)C3)cc2Cl)cccc1-c1cccc(-c2ccc(OCCNCCO)cc2)c1C [Example 345, (R)-1-(5-chloro-2-((5-cyanopyridin-3-yl)methoxy)-4-((4″-(2-((2-hydroxyethyl)amino)ethoxy)-2,2′-dimethyl-[1,1′:3′,1″-terphenyl]-3-yl)methoxy)benzyl)pyrrolidine-3-carboxylic acid]	10.05	6.26	229
CN1CCCC1c1ccc(-c2cccc(-c3cccc4c3CC[C@@H]4Oc3nc(OCc4cncc(C#N)c4)c(CNC(C)(C)C(=O)O)cc3Cl)c2Cl)cc1 (stereo partly drawn) [Example 672]	10.19	6.36	24.5
Cc1c(COc2cc(OCc3cncc(C#N)c3)c(CN[C@@](C)(CO)C(=O)O)cc2Cl)cccc1-c1cccc(-c2nnc(CCN)o2)c1C [Example 329, (S)-2-((4-((3′-(5-(2-aminoethyl)-1,3,4-oxadiazol-2-yl)-2,2′-dimethyl-[1,1′-biphenyl]-3-yl)methoxy)-5-chloro-2-((5-cyanopyridin-3-yl)methoxy)benzyl)amino)-3-hydroxy-2-methylpropanoic acid]	9.55	6.33	290
COc1cc(-c2cccc(-c3cccc4c3CC[C@@H]4Oc3nc(OC)c(CN[C@@](C)(CO)C(=O)O)cc3Br)c2Cl)ccc1C1=NCCN1 [Example 780]	10.19	7.30	14.4
CC(C)(NCc1cc(Cl)c(OCc2cccc(-c3cccc(-c4ccc(OCCNCCO)cc4)c3Cl)c2Cl)nc1OCc1cncc(S(C)(=O)=O)c1)C(=O)O [Example 304, 2-(((5-chloro-6-((2,2′-dichloro-4″-(2-((2-hydroxyethyl)amino)ethoxy)-[1,1′:3′,1″-terphenyl]-3-yl)methoxy)-2-((5-(methylsulfonyl)pyridin-3-yl)methoxy)pyridin-3-yl)methyl)amino)-2-methylpropanoic acid]	10.19	7.10	16.5
CNCc1cccc(-c2cccc(-c3cccc(COc4cc(OCc5cncc(C#N)c5)c(CN[C@@](C)(CO)C(=O)O)cc4Cl)c3C)c2C)c1 [Example 358, (S)-2-((5-chloro-2-((5-cyanopyridin-3-yl)methoxy)-4-((2,2′-dimethyl-3″-((methylamino)methyl)-[1,1′:3′,1″-terphenyl]-3-yl)methoxy)benzyl)amino)-3-hydroxy-2-methylpropanoic acid]	9.86	5.68	100
Cc1c(COc2nc(OCc3cncc(C#N)c3)c(CN[C@@](C)(CO)C(=O)O)cc2Cl)cccc1-c1cccc(-c2ccc3c(c2)CC[C@@]3(CO)N(C)C)c1C [Example 305, (S)-2-(((5-chloro-2-((5-cyanopyridin-3-yl)methoxy)-6-((3′-((R)-1-(dimethylamino)-1-(hydroxymethyl)-2,3-dihydro-1H-inden-5-yl)-2,2′-dimethyl-[1,1′-biphenyl]-3-yl)methoxy)pyridin-3-yl)methyl)amino)-3-hydroxy-2-methylpropanoic acid]	9.80	5.75	150
COc1nc(O[C@H]2CCc3c(-c4cccc(-c5cc(C)c(CNC[C@@H]6CCC(=O)N6)c(OC)n5)c4Cl)cccc32)c(Cl)cc1CN1CC[C@H](C(=O)O)C1 [Example 491]	10.19	7.68	19.8
COc1nc(-c2cccc(-c3cccc4c3CC[C@@H]4Oc3nc(OC)c(CN4CC[C@H](C(=O)O)C4)cc3Cl)c2Cl)ccc1CN1CC(C)(CO)C1 [Example 708]	10.19	7.47	38.6
